From publication PMC9966578, “Barbamide Displays Affinity for Membrane-Bound Receptors and Impacts Store-Operated Calcium Entry in Mouse Sensory Neurons” (Marine Drugs, 2023)

Assays:
Experiment in all cases: radioligand binding assay (NIMH PDSP), secondary screen
[1] = biological target: T1, dopamine transporter (DAT) (Homo sapiens, UniProt Q01959)
T1 construct: gene SLC6A3

[2] = biological target: T2, kappa opioid receptor (KOR) (Homo sapiens, UniProt P41145)
T2 construct: gene OPRK1

[3] = biological target: T3, dopamine D3 receptor (D3R) (Homo sapiens, UniProt P35462)
T3 construct: gene DRD3
T3 sequence (P35462 whole entry): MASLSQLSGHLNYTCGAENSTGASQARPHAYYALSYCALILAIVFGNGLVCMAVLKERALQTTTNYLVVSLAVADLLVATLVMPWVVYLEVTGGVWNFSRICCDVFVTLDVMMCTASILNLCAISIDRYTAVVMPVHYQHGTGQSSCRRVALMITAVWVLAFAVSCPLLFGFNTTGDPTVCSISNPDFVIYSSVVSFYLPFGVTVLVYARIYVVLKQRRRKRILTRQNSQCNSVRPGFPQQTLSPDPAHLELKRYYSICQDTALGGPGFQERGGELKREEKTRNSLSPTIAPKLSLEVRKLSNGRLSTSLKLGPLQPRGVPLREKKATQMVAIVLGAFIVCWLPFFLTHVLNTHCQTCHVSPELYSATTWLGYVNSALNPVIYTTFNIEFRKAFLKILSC

T2 sequence (P41145 whole entry): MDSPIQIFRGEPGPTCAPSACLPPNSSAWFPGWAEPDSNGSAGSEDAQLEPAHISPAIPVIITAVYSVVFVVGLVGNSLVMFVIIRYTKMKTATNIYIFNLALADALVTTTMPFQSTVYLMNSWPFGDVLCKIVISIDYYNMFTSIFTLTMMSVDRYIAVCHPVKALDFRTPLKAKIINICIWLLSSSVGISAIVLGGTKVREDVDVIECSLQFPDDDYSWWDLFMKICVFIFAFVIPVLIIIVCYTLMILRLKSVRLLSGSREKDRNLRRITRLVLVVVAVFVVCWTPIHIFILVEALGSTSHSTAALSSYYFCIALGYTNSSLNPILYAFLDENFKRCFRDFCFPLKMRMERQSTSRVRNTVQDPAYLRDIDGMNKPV
T1 sequence (Q01959 whole entry): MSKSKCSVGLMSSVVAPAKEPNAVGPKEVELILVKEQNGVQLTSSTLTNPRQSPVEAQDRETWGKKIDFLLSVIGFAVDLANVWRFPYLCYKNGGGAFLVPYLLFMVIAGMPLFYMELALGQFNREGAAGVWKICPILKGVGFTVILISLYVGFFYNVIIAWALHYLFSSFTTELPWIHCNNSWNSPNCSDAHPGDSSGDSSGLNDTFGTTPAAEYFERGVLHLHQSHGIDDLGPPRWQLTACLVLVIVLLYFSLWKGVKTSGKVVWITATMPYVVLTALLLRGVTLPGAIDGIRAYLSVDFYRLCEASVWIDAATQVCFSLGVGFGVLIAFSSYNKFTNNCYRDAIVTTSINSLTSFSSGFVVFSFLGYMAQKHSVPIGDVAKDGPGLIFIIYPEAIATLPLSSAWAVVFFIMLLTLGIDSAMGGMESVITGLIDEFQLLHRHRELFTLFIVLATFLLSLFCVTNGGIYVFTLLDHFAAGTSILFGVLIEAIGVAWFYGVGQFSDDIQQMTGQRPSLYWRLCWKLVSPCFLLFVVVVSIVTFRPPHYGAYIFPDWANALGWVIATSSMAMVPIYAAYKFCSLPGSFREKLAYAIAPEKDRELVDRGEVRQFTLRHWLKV

## CO/C(=C/C(=O)N(C)C(Cc1ccccc1)c1nccs1)CC(C)C(Cl)(Cl)Cl (stereo not drawn) [compound 1, barbamide]
[1]
  Ki: 3.1 µM
[2]
  Ki: 0.0791 µM
[3]
  Ki: 0.446 µM
